Data from US9932354B2, “Imidazo-oxadiazole and imidazo-thiadiazole derivatives” (Ares Trading S.A., priority 2012, dated 2018).

Legend:
[1] = tested on: Amyloid-β peptide release (Aβ42), HEK cells overexpressing APP (HEK-APP); assay: Amyloid-β peptide release (Aβ42) assay, AlphaLISA on supernatant of HEK-APP cells; format: cell-based; conditions: Homo sapiens, HEK293, 24 h incubation with compound, read-out: Ab42 IC50 Ranges
In short: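 HEK-APP cells treated with compounds for 24 h at 37 °C, 5% CO2. Supernatant Aβ42 or total Aβ measured by AlphaLISA after 4.5 h with antibody beads (6E10 acceptor beads for total). IC50 values derived.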

[2] = tested on: Amyloid-β peptide release (AβTotal), HEK cells overexpressing APP (HEK-APP); assay: Amyloid-β peptide release (AβTotal) assay, AlphaLISA on supernatant of HEK-APP cells; format: cell-based; conditions: ratio Abtot vs Ab42, HEK-APP cells, 24 h

| Structure (SMILES) | IC50 [1] | Abtot/Ab42 selectivity ranges [2] |
| --- | --- | --- |
| Cc1ncc2oc(-c3ccc(NC(=O)c4ccc(F)c(OC(F)(F)F)c4)cn3)nn12 [Example 16, 4-Fluoro-N-[6-(5-methyl-imidazo[5,1-b][1,2,4]oxadiazol-2-yl)-pyridin-3-yl]-3-trifluoromethoxy-benzamide] | 1 to 2.2 µM | d (d: 10 fold > selectivity) |
| Cc1ncc2oc(-c3ccc(NC(=O)Cc4cc(F)ccc4C(F)(F)F)cc3)nn12 [Example 66, 2-(5-fluoro-2-(trifluoromethyl)phenyl)-N-(4-(5-methylimidazo [5,1-b][1,3,4]oxadiazol-2-yl)phenyl)acetamide] | 1 to 2.2 µM | c (c: 50 fold > selectivity ≥ 10 fold) |
| Cc1ncc2sc(C(=O)N3CCCCC3c3ccccc3Cl)nn12 (centres unmarked) [Example 115, [2-(2-Chloro-phenyl)-piperidin-1-yl]-(5-methyl-imidazo[5,1-b][1,3,4]thiadiazol-2-yl)-methanone] | 0.5 to 1 µM | d (d: 10 fold > selectivity) |
| Cc1ncc2oc(-c3ccc(C(=O)NCc4cccc(Cl)c4Cl)cc3)nn12 [Example 87, N-(2,3-dichlorobenzyl)-4-(5-methylimidazo[5,1-b][1,3,4]oxadiazol-2-yl)benzamide] | 1 to 2.2 µM | c (c: 50 fold > selectivity ≥ 10 fold) |
| Cc1cc(C)cc(CC(=O)Nc2ccc(-c3nn4c(C)ncc4o3)cc2)c1 [Example 51, 2-(3,5-Dimethyl-phenyl)-N-[4-(5-methyl-imidazo[5,1-b][1,2,4]oxadiazol-2-yl)-phenyl]-acetamide] | 0.5 to 1 µM | c (c: 50 fold > selectivity ≥ 10 fold) |
| Cc1ncc2oc(-c3ccc(NC(=O)Cc4ccc(Cl)c(Cl)c4)cc3)nn12 [Example 77, 2-(3,4-dichlorophenyl)-N-(4-(5-methylimidazo[5,1-b][1,3,4]oxadiazol-2-yl)phenyl)acetamide] | 0.1 to 0.5 µM | a (a: selectivity ≥ 100 fold) |
| COc1cc(NC(=O)Cc2ccccc2C(F)(F)F)ccc1-c1nn2c(C)ncc2o1 [Example 37, N-(3-methoxy-4-(5-methylimidazo[5,1-b][1,3,4]oxadiazol-2-yl)phenyl)-2-(2-(trifluoromethyl)phenyl)acetamide] | 1 to 2.2 µM | c (c: 50 fold > selectivity ≥ 10 fold) |
| Cc1ncc2sc(-c3ccc(NC(=O)Cc4ccc(Cl)c(Cl)c4)cc3)nn12 [Example 128, 2-(3,4-Dichloro-phenyl)-N-[4-(5-methyl-imidazo[5,1-b][1,3,4]thiadiazol-2-yl)-phenyl]-acetamide] | 0.5 to 1 µM | c (c: 50 fold > selectivity ≥ 10 fold) |
| Cc1ncc2oc(-c3ccc(NC(=O)Cc4ccc(C(F)(F)F)cc4)cc3)nn12 [Example 48, N-[4-(5-Methyl-imidazo[5,1-b][1,2,4]oxadiazol-2-yl)-phenyl]-2-(4-trifluoromethyl-phenyl)-acetamide] | 1 to 2.2 µM | c (c: 50 fold > selectivity ≥ 10 fold) |
| CCC(C(=O)Nc1ccc(-c2nn3c(C)ncc3o2)nc1)c1ccccc1 (centres unmarked) [Example 85, N-[6-(5-Methyl-imidazo[5,1-b][1,2,4]oxadiazol-2-yl)-pyridin-3-yl]-2-phenyl-butyramide] | 1 to 2.2 µM | c (c: 50 fold > selectivity ≥ 10 fold) |
